Reference: patent US20040097421A1 (priority 2000, published 2004)
Where a name gives a salt, the structure may show the parent alone. Read-outs that look alike come from different tables or passages of the source.

What was measured:
[1] = test system: solid fresh human tumour specimens (PHTC); format: cell-based
[2] = test system: panel of ten human tumour cell lines; format: cell-based
[3] = test system: U1285 (small cell lung cancer); assay: cells; format: cell-based; details: Homo sapiens, read-out: IC50 (μM), U1285
[4] = test system: U1906L (small cell lung cancer); assay: cells; format: cell-based; details: Homo sapiens, read-out: IC50 (μM), U1906L
[5] = test system: U-1752 (non-small cell lung cancer); assay: cells; format: cell-based; details: Homo sapiens, read-out: IC50 (μM), U-1752
[6] = test system: NCI-H611 (non-small cell lung cancer); assay: cells; format: cell-based; details: Homo sapiens, read-out: IC50 (μM), NCI-H611
[7] = test system: U1690 (small cell lung cancer); assay: cells; format: cell-based; details: Homo sapiens, read-out: IC50 (μM), U1690
[8] = test system: U-1906E (small cell lung cancer); assay: cells; format: cell-based; details: Homo sapiens, read-out: IC50 (μM), U-1906E
[9] = test system: U-1568 (non-small cell lung cancer); assay: cells; format: cell-based; details: Homo sapiens, read-out: IC50 (μM), U-1568
[10] = test system: CEM/S (leukemia CCRF-CEM); assay: cells; format: cell-based; details: Homo sapiens, 72 h, read-out: IC50 (μM), CEM/S
[11] = test system: 8226S (myeloma RPMI 8226); assay: cells; format: cell-based, human; details: read-out: IC50 (μM), 8226S
[12] = test system: hematological fresh human tumour specimens (PHTC); format: cell-based
[13] = test system: solid tumour types, cell lines and primary cultures of human tumour cells from patients; assay: Tumour type specific spectrum of antitumour activity, solid tumour types; format: cell-based; details: for Activity in the listed diagnoses of Table 5: 4.0 μM; for Activity against solid tumour types (activity = at least 50% reduction in tumour cell survival): cell lines and PHTC
[14] = test system: fresh human tumour specimens (fourteen hematological, thirteen solid); assay: FMCA, IC50 comparison in 27 fresh human tumour specimens; format: cell-based; details: 27 human tumour samples, 82 to 0.131 μM
[15] = test system: 27 PHTC samples from 9 patients with hematological and 18 patients with solid tumours; assay: Circumvention of melphalan resistance, FMCA classification of PHTC samples; format: cell-based, human; details: 4 μM
[16] = test system: Adenocarcinoma tumor cell system; assay: Cytotoxic activity in different tumor models, adenocarcinoma; format: cell-based, human; details: Number 5
[17] = test system: Corpus cancer tumor cell system; assay: Cytotoxic activity in different tumor models, corpus cancer; format: cell-based, human; details: Number 4
[18] = test system: Breast cancer tumor cell system; assay: Cytotoxic activity in different tumor models, breast cancer; format: cell-based, human; details: Number 4
[19] = test system: Ovarian carcinoma tumor cell system; assay: Cytotoxic activity in different tumor models, ovarian carcinoma; format: cell-based, human; details: Number 8
[20] = test system: H69AR (doxorubicin resistance subline); format: cell-based, human
[21] = test system: NSC Lung cancer tumor cell system; assay: Cytotoxic activity in different tumor models, NSC lung cancer; format: cell-based, human; details: Number 8
[22] = test system: solid tumors, primary cultures of human tumor cells from patients (PHTC); format: cell-based
[23] = test system: hematological tumors, primary cultures of human tumor cells from patients (PHTC); format: cell-based
[24] = test system: Prostate cancer tumor cell system; assay: Cytotoxic activity in different tumor models, prostate cancer; format: cell-based, human; details: Number 1
sarcoma 45 = details: rats; cited from earlier work
[25] = test system: mitochondria from rat liver homogenates and Jensen sarcoma cells; details: cited from earlier work

Nc1ccn([C@@H]2O[C@H](CO)[C@@H](O)[C@@H]2O)c(=O)n1 [AraC]
Tumor cell survival index %, Solid (n = 22) [1]: 102%

N.N.[Cl][Pt][Cl] [Cisplatin, cisplatin]
IC50 (μM), MEAN [2]: 18.0 µM

CC(=O)O[C@@]12CO[C@@H]1C[C@H](O)[C@@]1(C)C(=O)[C@H](O)C3=C(C)[C@@H](OC(=O)[C@H](O)[C@@H](NC(=O)OC(C)(C)C)c4ccccc4)C[C@@](O)([C@@H](OC(=O)c4ccccc4)[C@H]21)C3(C)C [Docetaxel, docetaxel]
IC50 [3]: 0.1 µM | IC50 [4]: 0.1 µM | Tumor cell survival index %, Solid (n = 22) [1]: 67% | IC50 [5]: 0.46 µM | IC50 [6]: 1.1 µM | IC50 [7]: 7.7 µM | IC50 [8]: 0.1 µM | IC50 [9]: 5.94 µM

COc1cccc2c1C(=O)c1c(O)c3c(c(O)c1C2=O)C[C@@](O)(C(=O)CO)C[C@@H]3O[C@H]1C[C@H](N)[C@H](O)[C@H](C)O1 [Doxorubicin, doxorubicin]
IC50 [10]: 0.18 µM | IC50 [3]: 0.52 µM | IC50 [4]: 0.92 µM | Tumor cell survival index %, Solid (n = 22) [1]: 97% | IC50 ([11]; Homo sapiens, RPMI-8226, 72 h): 0.13 µM | IC50 (μM), MEAN [2]: 3.51 µM | Tumor cell survival index %, Hematological (n = 42) [12]: 29% | IC50 [5]: 0.42 µM | IC50 [6]: ≥ 183 µM | IC50 [7]: 2.21 µM | IC50 [8]: 0.44 µM | IC50 [9]: ≥ 183 µM

COc1cc([C@@H]2c3cc4c(cc3[C@@H](O[C@@H]3O[C@@H]5CO[C@@H](C)O[C@H]5[C@H](O)[C@H]3O)[C@H]3COC(=O)[C@H]23)OCO4)cc(OC)c1O [Etoposide, etoposide]
Tumor cell survival index %, Solid (n = 22) [1]: 81% | Tumor cell survival index %, Hematological (n = 42) [12]: 47%

CCOC(=O)[C@H](Cc1ccc(F)cc1)NC(=O)[C@@H](N)Cc1ccc(N(CCCl)CCCl)cc1.Cl [Example J1, L-Melphalanyl-L-p-fluorophenylalanine ethyl ester hydrochloride]
Activity in the listed diagnoses of Table 5 [13]: active in most of these diagnoses | Activity against solid tumour types (activity = at least 50% reduction in tumour cell survival) [13]: showed activity against several types of solid tumours | Comparison of IC50s (FIG. 2) [14]: in all cases was more active than P2 | Number of samples classified EDR (extreme drug resistance) [15]: 1 | Number of samples classified IDR (intermediate drug resistance) [15]: 3 | Samples classified EDR (%) [15]: 6% | Median response at 4.0 μM >50% reduction in tumor cell survival [16]: Yes | Median response at 4.0 μM >50% reduction in tumor cell survival [17]: No | Median response at 4.0 μM >50% reduction in tumor cell survival [18]: Yes | Median response at 4.0 μM >50% reduction in tumor cell survival [19]: Yes | IC50 [20]: 0.9 µM | Median response at 4.0 μM >50% reduction in tumor cell survival [21]: Yes

CCOC(=O)[C@H](Cc1ccc(F)cc1)NC(=O)[C@H](Cc1ccc(N(CCCl)CCCl)cc1)NC(=O)[C@@H]1CCCN1.Cl [Example J3, L-Prolinyl-L-melphalanyl-L-p-fluorophenylalanine ethyl ester hydrochloride]
Activity against solid tumor samples compared to melphalan, sarcolysine and P2 [22]: more active | Activity in the listed diagnoses of Table 5 [13]: active | Activity against solid tumour types (activity = at least 50% reduction in tumour cell survival) [13]: showed activity against several types of solid tumours | Number of samples classified EDR (extreme drug resistance) [15]: 0 (0%) | Number of samples classified IDR (intermediate drug resistance) [15]: 4 | Samples classified EDR (%) [15]: 0 (0%) | Median response at 4.0 μM >50% reduction in tumor cell survival [16]: Yes | Activity against hematological PHTC samples compared to melphalan and sarcolysine [23]: more active | Tumor cell survival index (%), Hematological tumors n = 7-11 [23]: 7% | Median response at 4.0 μM >50% reduction in tumor cell survival [24]: Yes | Median response at 4.0 μM >50% reduction in tumor cell survival [17]: Yes | Median response at 4.0 μM >50% reduction in tumor cell survival [18]: Yes | Median response at 4.0 μM >50% reduction in tumor cell survival [19]: Yes | Median response at 4.0 μM >50% reduction in tumor cell survival [21]: Yes

CCOC(=O)[C@H](Cc1ccccc1)NC(=O)[C@@H](N)Cc1ccc(N(CCCl)CCCl)cc1.Cl [JV22, L-Melphalanyl-L-phenylalanine ethyl ester hydrochloride]
IC50 (μM), MEAN [2]: 0.48 µM

CCOC(=O)[C@H](Cc1ccc(O)cc1)NC(=O)[C@@H](N)Cc1ccc(N(CCCl)CCCl)cc1.Cl [JV24, L-Melphalanyl-L-tyrosine ethyl ester hydrochloride]
IC50 (μM), MEAN [2]: 1.05 µM

CCOC(=O)[C@H](Cc1ccc(N(CCCl)CCCl)cc1)NC(=O)[C@@H](N)Cc1ccc(N(CCCl)CCCl)cc1 [JV27, L-Melphalanyl-L-melphalan ethyl ester hydrochloride]
IC50 [11]: 1.01 µM

CC(C)OC(=O)[C@H](Cc1ccc(F)cc1)NC(=O)[C@@H](N)Cc1ccc(N(CCCl)CCCl)cc1.Cl [JV28, L-Melphalanyl-L-p-fluorophenylalanine isopropyl ester hydrochloride]
Activity against solid tumor samples compared to melphalan, sarcolysine and P2 [22]: more active | Activity in the listed diagnoses of Table 5 [13]: active in most of these diagnoses | Activity against solid tumour types (activity = at least 50% reduction in tumour cell survival) [13]: showed activity against several types of solid tumours | Number of samples classified EDR (extreme drug resistance) [15]: 1 | Number of samples classified IDR (intermediate drug resistance) [15]: 2 | Samples classified EDR (%) [15]: 6% | Median response at 4.0 μM >50% reduction in tumor cell survival [16]: Yes | Activity against hematological PHTC samples compared to melphalan and sarcolysine [23]: more active | Median response at 4.0 μM >50% reduction in tumor cell survival [24]: Yes | Median response at 4.0 μM >50% reduction in tumor cell survival [18]: Yes | Median response at 4.0 μM >50% reduction in tumor cell survival [19]: Yes | Median response at 4.0 μM >50% reduction in tumor cell survival [21]: Yes

CC[C@]1(O)C[C@H]2CN(CCc3c([nH]c4ccccc34)[C@@](C(=O)OC)(c3cc4c(cc3OC)N(C=O)[C@H]3[C@@](O)(C(=O)OC)[C@H](OC(C)=O)[C@]5(CC)C=CCN6CC[C@]43[C@@H]65)C2)C1 [Vincristine, vincristine]
IC50 [10]: 0.08 µM | Tumor cell survival index %, Solid (n = 22) [1]: 93% | IC50 ([11]; Homo sapiens, RPMI-8226, 72 h): 0.01 µM | IC50 (μM), MEAN [2]: 30.1 µM | Tumor cell survival index %, Hematological (n = 42) [12]: 39%

CCC1=C[C@@H]2CN(C1)Cc1c([nH]c3ccccc13)[C@@](C(=O)OC)(c1cc3c(cc1OC)N(C)[C@H]1[C@@](O)(C(=O)OC)[C@H](OC(C)=O)[C@]4(CC)C=CCN5CC[C@]31[C@@H]54)C2 [Vinorelbine, vinorelbine]
Tumor cell survival index %, Solid (n = 22) [1]: 73% | Tumor cell survival index %, Hematological (n = 42) [12]: 50%

CCOC(=O)[C@H](CC(C)C)NC(=O)[C@H](Cc1ccc(N(CCCl)CCCl)cc1)NC(C)=O [asaley]
Sarcoma 45 growth (sarcoma 45): inhibited

CCOC(=O)[C@H](Cc1ccc(O)cc1)NC(=O)[C@H](Cc1ccc(N(CCCl)CCCl)cc1)NC(C)=O [astyron, N-acetyl-L-melphalanyl-L-tyrosine ethyl ester]
Sarcoma 45 growth (sarcoma 45): inhibited

CC(C)[C@H](NC(=O)[C@@H](N)Cc1ccc(N(CCCl)CCCl)cc1)C(=O)O [salin, L-melphalanyl-L-valine]
Oxidative phosphorylation in mitochondria [25]: disrupted
